From PubChem BioAssay AID1963973 (Molecular Pharmacology Branch, DTP, NCI, 2024)

Test system: 883617-216-R-J1-PDC tumor spheroids, viability
Assay: Anticancer human tumor 883617-216-R-J1-PDC patient-derived bladder carcinoma cell line growth inhibition [PI3K]
Conditions: spheroids with HUVEC and MSC; for IC50: curve of first compound; for viability, T/C: stronger effect = lower value
Procedure, shortened: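 Complex 3D spheroids (cancer cells + endothelial HUVEC + mesenchymal stem cells); drug pairs of targeted agent x inavolisib/alpelisib/duvelisib/copanlisib; half-log series from ~Cmax, max 10 microM if Cmax unknown; endpoint viability.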

[1] = second compound 0.00316 µM, first compound 0.0316 µM
[2] = second compound 0.00316 µM, first compound 0.1 µM
[3] = second compound 0.00316 µM, first compound 0.316 µM
[4] = second compound 0.00316 µM, first compound 1 µM
[5] = second compound 0.00316 µM, first compound 3.16 µM
[6] = second compound 0.00316 µM, first compound 10 µM
[7] = second compound 0.01 µM, first compound 0.0316 µM
[8] = second compound 0.01 µM, first compound 0.1 µM
[9] = second compound 0.01 µM, first compound 0.316 µM
[10] = second compound 0.01 µM, first compound 1 µM
[11] = second compound 0.01 µM, first compound 3.16 µM
[12] = second compound 0.01 µM, first compound 10 µM
[13] = second compound 0.0316 µM, first compound 0.0316 µM
[14] = second compound 0.0316 µM, first compound 0.1 µM
[15] = second compound 0.0316 µM, first compound 0.316 µM
[16] = second compound 0.0316 µM, first compound 1 µM
[17] = second compound 0.0316 µM, first compound 3.16 µM
[18] = second compound 0.0316 µM, first compound 10 µM
[19] = second compound 0.1 µM, first compound 0.0316 µM
[20] = second compound 0.1 µM, first compound 0.1 µM
[21] = second compound 0.1 µM, first compound 0.316 µM
[22] = second compound 0.1 µM, first compound 1 µM
[23] = second compound 0.1 µM, first compound 3.16 µM
[24] = second compound 0.1 µM, first compound 10 µM
[25] = second compound 0.316 µM, first compound 0.0316 µM
[26] = second compound 0.316 µM, first compound 0.1 µM
[27] = second compound 0.316 µM, first compound 0.316 µM
[28] = second compound 0.316 µM, first compound 1 µM
[29] = second compound 0.316 µM, first compound 3.16 µM
[30] = second compound 0.316 µM, first compound 10 µM
[31] = second compound 1 µM, first compound 0.0316 µM
[32] = second compound 1 µM, first compound 0.1 µM
[33] = second compound 1 µM, first compound 0.316 µM
[34] = second compound 1 µM, first compound 1 µM
[35] = second compound 1 µM, first compound 3.16 µM
[36] = second compound 1 µM, first compound 10 µM
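Further: spheroids exposed to agents for 7 days before the viability read.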

In the case of `CC1(C)CCC(CN2CCN(c3ccc(C(=O)NS(=O)(=O)c4ccc(NCC5CCOCC5)c([N+](=O)[O-])c4)c(Oc4cnc5[nH]ccc5c4)c3)CC2)=C(c2ccc(Cl)cc2)C1` + COc1c(OCCCN2CCOCC2)ccc2c3n(c(=NC(=O)c4cnc(N)nc4)nc12)CCN3, the IC50 (second compound 0.00316 µM) is reported as > 10000 nM, the IC50 (second compound 0.01 µM) is reported as > 10000 nM and the IC50 (second compound 0.0316 µM) is reported as < 31.6 nM. For the same molecule, the IC50 (second compound 0.1 µM) was < 31.6 nM, the IC50 (second compound 0.316 µM) was < 31.6 nM and the IC50 (second compound 1 µM) was < 31.6 nM. It also gave a viability, T/C [1] of 86.9%, a viability, T/C [2] of 84.3% and a viability, T/C [3] of 77.5%. It also gave a viability, T/C [4] of 83.7%, a viability, T/C [5] of 82.7% and a viability, T/C [6] of 110%. The viability, T/C [7] was 68%, the viability, T/C [8] was 67.9% and the viability, T/C [9] was 66.5%. It also gave a viability, T/C [10] of 68.5%, a viability, T/C [11] of 66.1% and a viability, T/C [12] of 58.2%. It also gave a viability, T/C [13] of 32.3%, a viability, T/C [14] of 35.8% and a viability, T/C [15] of 40.5%. It also gave a viability, T/C [16] of 39.1%, a viability, T/C [17] of 35.3% and a viability, T/C [18] of 35.5%. The viability, T/C [19] was 27.5%, the viability, T/C [20] was 15.1% and the viability, T/C [21] was 17%. The viability, T/C [22] was 17.8%, the viability, T/C [23] was 15.2% and the viability, T/C [24] was 13.1%. It also gave a viability, T/C [25] of 6.5%, a viability, T/C [26] of 4.66% and a viability, T/C [27] of 5.31%. The viability, T/C [28] was 5.04%, the viability, T/C [29] was 4.63% and the viability, T/C [30] was 4.02%. For the same molecule, the viability, T/C [31] was 3.29%, the viability, T/C [32] was 2.86% and the viability, T/C [33] was 2.77%. The viability, T/C [34] was 3.15%, the viability, T/C [35] was 2.53% and the viability, T/C [36] was 2.82%.

`C[C@@H](NC(=O)c1ncnc(N)c1Cl)c1ncc(C(=O)Nc2cc(C(F)(F)F)c(Cl)cn2)s1` + COc1c(OCCCN2CCOCC2)ccc2c3n(c(=NC(=O)c4cnc(N)nc4)nc12)CCN3 was tested, and the IC50 (second compound 0.00316 µM) was > 10000 nM, the IC50 (second compound 0.01 µM) was > 10000 nM and the IC50 (second compound 0.0316 µM) was < 31.6 nM. For the same molecule, the IC50 (second compound 0.1 µM) was < 31.6 nM, the IC50 (second compound 0.316 µM) was < 31.6 nM and the IC50 (second compound 1 µM) was < 31.6 nM. For the same molecule, the viability, T/C [1] was 86.2%, the viability, T/C [2] was 83.1% and the viability, T/C [3] was 86.1%. It also gave a viability, T/C [4] of 96%, a viability, T/C [5] of 70.9% and a viability, T/C [6] of 59.9%. The viability, T/C [7] was 88.2%, the viability, T/C [8] was 71.5% and the viability, T/C [9] was 72.5%. It also gave a viability, T/C [10] of 87.5%, a viability, T/C [11] of 71.5% and a viability, T/C [12] of 56.6%. It also gave a viability, T/C [13] of 38.3%, a viability, T/C [14] of 41.2% and a viability, T/C [15] of 42.1%. For the same molecule, the viability, T/C [16] was 50.4%, the viability, T/C [17] was 40.8% and the viability, T/C [18] was 30.9%. For the same molecule, the viability, T/C [19] was 19%, the viability, T/C [20] was 20.6% and the viability, T/C [21] was 23.1%. The viability, T/C [22] was 22%, the viability, T/C [23] was 20.5% and the viability, T/C [24] was 14.5%. The viability, T/C [25] was 7.26%, the viability, T/C [26] was 7.17% and the viability, T/C [27] was 7.53%. The viability, T/C [28] was 7.56%, the viability, T/C [29] was 9.7% and the viability, T/C [30] was 5.01%. For the same molecule, the viability, T/C [31] was 5.51%, the viability, T/C [32] was 5.13% and the viability, T/C [33] was 5.48%. It also gave a viability, T/C [34] of 5.61%, a viability, T/C [35] of 5.29% and a viability, T/C [36] of 2.13%.
